The target in assay [1] is 72 kDa type IV collagenase (Homo sapiens, UniProt P08253).
The species named for another assay is Homo sapiens. Kind of assay: Selectivity ratio of IC50 for recombinant human MMP12 to IC50 for recombinant human MMP2.
The target in a further assay is Collagenase 3 (Homo sapiens, UniProt P45452).
Assay [2] has as its target Macrophage metalloelastase (Homo sapiens, UniProt P39900).

Non-standard residues stand in square brackets, D forms with d. Residues, ends and D or L forms follow the SMILES beside them. *: point of attachment. Benzoyl(4-OPh(4-CONH2)) = NC(=O)c1ccc(Oc2ccc(C(=O)*)cc2)cc1; Benzenesulfonyl(4-OPh) = O=S(=O)(c1ccc(Oc2ccccc2)cc1)*; Benzenesulfonyl(4-Ph) = O=S(=O)(c1ccc(-c2ccccc2)cc1)*; X1 = O=C(CCCCS(=O)(=O)c1ccc(Oc2ccccc2)cc1)*; Benzoyl(4-OPh) = O=C(c1ccc(Oc2ccccc2)cc1)*; X2 = O=C(c1ccc(Oc2ccc(F)cc2)cc1)*; NMeI = CC[C@H](C)[C@H](NC)C(=O)O; NMeE = CN[C@@H](CCC(=O)O)C(=O)O; NMeL = CN[C@@H](CC(C)C)C(=O)O; NMeM = CN[C@@H](CCSC)C(=O)O; NMeV = CN[C@H](C(=O)O)C(C)C; β3hP = O=C(O)C[C@@H]1CCCN1; Orn = NCCC[C@H](N)C(=O)O; Dab = NCC[C@H](N)C(=O)O; Dap = NC[C@H](N)C(=O)O; Ahx = NCCCCCC(=O)O; Ava = NCCCCC(=O)O; GABA = NCCCC(=O)O; βAla = NCCC(=O)O

The results in this text go back to ChEMBL document CHEMBL5154944, “Discovery of Aryloxyphenyl-Heptapeptide Hybrids as Potent and Selective Matrix Metalloproteinase-2 Inhibitors for the Treatment of Idiopathic Pulmonary Fibrosis” (J Med Chem, 2022).

Chain of 72 kDa type IV collagenase (P08253 whole entry): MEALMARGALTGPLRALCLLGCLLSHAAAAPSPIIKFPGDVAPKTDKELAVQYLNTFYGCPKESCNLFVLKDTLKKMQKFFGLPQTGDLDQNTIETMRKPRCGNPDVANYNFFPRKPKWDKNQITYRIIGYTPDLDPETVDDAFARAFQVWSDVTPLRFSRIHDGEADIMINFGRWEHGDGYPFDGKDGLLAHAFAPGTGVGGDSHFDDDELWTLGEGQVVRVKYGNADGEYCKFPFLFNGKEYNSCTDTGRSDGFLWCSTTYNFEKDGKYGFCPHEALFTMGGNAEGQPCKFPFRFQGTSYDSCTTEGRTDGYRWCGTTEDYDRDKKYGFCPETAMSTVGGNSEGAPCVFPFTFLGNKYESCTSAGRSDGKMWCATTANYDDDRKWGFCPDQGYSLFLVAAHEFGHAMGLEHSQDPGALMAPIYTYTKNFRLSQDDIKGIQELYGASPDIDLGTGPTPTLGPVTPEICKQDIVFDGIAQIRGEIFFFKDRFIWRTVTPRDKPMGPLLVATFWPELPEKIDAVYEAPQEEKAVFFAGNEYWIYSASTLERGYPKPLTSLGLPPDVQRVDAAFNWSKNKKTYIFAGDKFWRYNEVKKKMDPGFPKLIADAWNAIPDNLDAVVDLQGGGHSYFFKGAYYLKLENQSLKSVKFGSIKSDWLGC
Chain of Macrophage metalloelastase (P39900 whole entry): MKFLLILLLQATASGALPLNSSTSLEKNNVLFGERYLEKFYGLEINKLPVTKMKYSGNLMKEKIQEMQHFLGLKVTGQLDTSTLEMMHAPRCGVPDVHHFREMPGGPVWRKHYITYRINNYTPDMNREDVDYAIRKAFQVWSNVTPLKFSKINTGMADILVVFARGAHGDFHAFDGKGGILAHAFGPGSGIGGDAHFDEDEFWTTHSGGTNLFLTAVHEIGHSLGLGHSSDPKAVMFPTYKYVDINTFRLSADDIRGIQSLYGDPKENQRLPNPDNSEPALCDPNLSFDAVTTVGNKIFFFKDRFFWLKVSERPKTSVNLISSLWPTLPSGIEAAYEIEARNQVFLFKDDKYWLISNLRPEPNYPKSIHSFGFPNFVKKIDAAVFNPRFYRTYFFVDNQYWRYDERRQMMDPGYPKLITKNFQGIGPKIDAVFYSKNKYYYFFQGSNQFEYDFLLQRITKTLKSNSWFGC

In general, IC50 refers to the point on the concentration scale where inhibition reaches its midpoint. A low value points to greater potency. As to `CC(C)C[C@H](NC(=O)[C@H](CCN)NC(=O)[C@H](CC(=O)O)NC(=O)[C@H](CC(N)=O)NC(=O)CCCNC(=O)c1ccc(Oc2ccc(F)cc2)cc1)C(=O)N(C)[C@@H](CCC(=O)O)C(=O)N1CCC[C@H]1CC(N)=O` ({X2-GABA}-ND[Dab]L[NMeE][β3hP]-NH2), the figures for the IC50 (in assay [1]; against Collagenase 3) were 0.11 nM and 1290 nM, respectively. The Ratio IC50 in the assay listed under Homo sapiens was found to be 40700.
The corresponding values for `CSCC[C@@H](C(=O)N1CCC[C@H]1C(N)=O)N(C)C(=O)[C@H](CC(C)C)NC(=O)[C@H](C)NC(=O)[C@H](CC(=O)O)NC(=O)[C@H](CC(N)=O)NC(=O)CCCNS(=O)(=O)c1ccc(Oc2ccccc2)cc1` ({Benzenesulfonyl(4-OPh)-GABA}-NDAL[NMeM]P-NH2) are 0.128 nM, 7 nM and 57.
The matching figures for `CSCC[C@H](NC(=O)[C@H](CC(C)C)NC(=O)[C@H](C)NC(=O)[C@H](CC(=O)O)NC(=O)[C@H](CC(N)=O)NC(=O)CCCCNS(=O)(=O)c1ccc(-c2ccccc2)cc1)C(=O)N1CCC[C@H]1C(N)=O` ({Benzenesulfonyl(4-Ph)-Ava}-NDALMP-NH2): 2.9 nM, 1710 nM and 12.
On to `CSCC[C@@H](C(=O)N1CCC[C@H]1CC(N)=O)N(C)C(=O)[C@H](CC(C)C)NC(=O)[C@H](C)NC(=O)[C@H](CC(=O)O)NC(=O)[C@H](CC(N)=O)NC(=O)CCCNS(=O)(=O)c1ccc(Oc2ccccc2)cc1` ({Benzenesulfonyl(4-OPh)-GABA}-NDAL[NMeM][β3hP]-NH2), for which the figures for the IC50 (in assay [1]; at Collagenase 3) were 0.044 nM and 5.8 nM, respectively. The Ratio IC50 in the assay listed under Homo sapiens was found to be 43.
The corresponding values for `CSCC[C@H](NC(=O)[C@H](CC(C)C)NC(=O)[C@H](C)NC(=O)[C@H](CC(=O)O)NC(=O)[C@H](CC(N)=O)NC(=O)CCNS(=O)(=O)c1ccc(Oc2ccccc2)cc1)C(=O)N1CCC[C@H]1C(N)=O` ({Benzenesulfonyl(4-OPh)-βAla}-NDALMP-NH2) are 0.49 nM, 114 nM and 51.
Take `CC(C)C[C@H](NC(=O)[C@H](CCN)NC(=O)[C@H](CC(=O)O)NC(=O)[C@H](CC(N)=O)NC(=O)CCNC(=O)c1ccc(Oc2ccc(C(N)=O)cc2)cc1)C(=O)N(C)[C@@H](CCC(=O)O)C(=O)N1CCC[C@H]1CC(N)=O` ({Benzoyl(4-OPh(4-CONH2))-βAla}-ND[Dab]L[NMeE][β3hP]-NH2): the IC50 was 0.53 nM in assay [1] and 146 nM against Collagenase 3. Besides, in the assay listed under Homo sapiens, the Ratio IC50 is 8390.
The corresponding values for `CSCC[C@H](NC(=O)[C@H](CC(C)C)NC(=O)[C@H](C)NC(=O)[C@H](CC(=O)O)NC(=O)[C@H](CC(N)=O)NC(=O)CCCNS(=O)(=O)c1ccc(-c2ccccc2)cc1)C(=O)N1CCC[C@H]1C(N)=O` ({Benzenesulfonyl(4-Ph)-GABA}-NDALMP-NH2) are 9.2 nM, 1120 nM and 5.
On to `CSCC[C@H](NC(=O)[C@H](CC(C)C)NC(=O)[C@H](C)NC(=O)[C@H](CC(=O)O)NC(=O)[C@H](CC(N)=O)NC(=O)CNS(=O)(=O)c1ccc(Oc2ccccc2)cc1)C(=O)N1CCC[C@H]1C(N)=O` ({Benzenesulfonyl(4-OPh)}-GNDALMP-NH2), for which the figures for the half-inhibitory concentration (IC50) (in assay [2]; in assay [1]; against Collagenase 3) were 916 nM, 69 nM and 6470 nM, respectively. For the same molecule, the Ratio IC50 in the assay filed under Homo sapiens was 13.
With `CC(C)C[C@H](NC(=O)[C@H](C)NC(=O)[C@H](CC(=O)O)NC(=O)[C@H](CC(N)=O)NC(=O)CCCNS(=O)(=O)c1ccc(Oc2ccccc2)cc1)C(=O)N(C)[C@@H](CC(C)C)C(=O)N1CCC[C@H]1CC(N)=O` ({Benzenesulfonyl(4-OPh)-GABA}-NDAL[NMeL][β3hP]-NH2), the half-inhibitory concentration (IC50) in assay [1] was 0.055 nM; against Collagenase 3, 15 nM. Also, in the assay listed under Homo sapiens, the Ratio IC50 stood at 24.
The corresponding values for `CC[C@H](C)[C@@H](C(=O)N1CCC[C@H]1CC(N)=O)N(C)C(=O)[C@H](CC(C)C)NC(=O)[C@H](CCN)NC(=O)[C@H](CC(=O)O)NC(=O)[C@H](CC(N)=O)NC(=O)CCCNS(=O)(=O)c1ccc(Oc2ccccc2)cc1` ({Benzenesulfonyl(4-OPh)-GABA}-ND[Dab]L[NMeI][β3hP]-NH2) are 0.09 nM, 443 nM and 6010.
`CC(C)C[C@H](NC(=O)[C@H](CCN)NC(=O)[C@H](CC(=O)O)NC(=O)[C@H](CC(N)=O)NC(=O)CCCNC(=O)c1ccc(Oc2ccccc2)cc1)C(=O)N(C)[C@@H](CCC(=O)O)C(=O)N1CCC[C@H]1CC(N)=O` ({Benzoyl(4-OPh)-GABA}-ND[Dab]L[NMeE][β3hP]-NH2): in the assay listed under Homo sapiens, the Ratio IC50 stood at 27200. Also, the concentration for half-maximal inhibition (IC50) on Collagenase 3 was determined as 2000 nM.
With `CC(C)C[C@H](NC(=O)[C@H](CCN)NC(=O)[C@H](CC(=O)O)NC(=O)[C@H](CC(N)=O)NC(=O)CCCNC(=O)c1ccc(Oc2ccc(C(N)=O)cc2)cc1)C(=O)N(C)[C@@H](CCC(=O)O)C(=O)N1CCC[C@H]1CC(N)=O` ({Benzoyl(4-OPh(4-CONH2))-GABA}-ND[Dab]L[NMeE][β3hP]-NH2), the IC50 in assay [1] came out at 0.17 nM; against Collagenase 3 it was 540 nM. For the same molecule, the Ratio IC50 in the assay listed under Homo sapiens worked out at 23100.
The matching figures for `CC[C@H](C)[C@@H](C(=O)N1CCC[C@H]1C(N)=O)N(C)C(=O)[C@H](CC(C)C)NC(=O)[C@H](C)NC(=O)[C@H](CC(=O)O)NC(=O)[C@H](CC(N)=O)NC(=O)CCCNS(=O)(=O)c1ccc(Oc2ccccc2)cc1` ({Benzenesulfonyl(4-OPh)-GABA}-NDAL[NMeI]P-NH2): 0.097 nM, 16 nM and 186.
The corresponding values for `CSCC[C@H](NC(=O)[C@H](CC(C)C)NC(=O)[C@H](C)NC(=O)[C@H](CC(=O)O)NC(=O)[C@H](CC(N)=O)NC(=O)CCCCS(=O)(=O)c1ccc(Oc2ccccc2)cc1)C(=O)N1CCC[C@H]1C(N)=O` (X1-NDALMP-NH2) are 0.089 nM, 57 nM and 69.
For the molecule `CSCC[C@H](NC(=O)[C@H](CC(C)C)NC(=O)[C@H](C)NC(=O)[C@H](CC(=O)O)NC(=O)[C@H](CC(N)=O)NC(=O)CNS(=O)(=O)c1ccc(-c2ccccc2)cc1)C(=O)N1CCC[C@H]1C(N)=O` ({Benzenesulfonyl(4-Ph)}-GNDALMP-NH2), the IC50 in assay [2] was 4170 nM; in assay [1] it was above 100 nM; against Collagenase 3, above 10000 nM.
Consider `CC(C)C[C@H](NC(=O)[C@H](C)NC(=O)[C@H](CC(=O)O)NC(=O)[C@H](CC(N)=O)NC(=O)CCCNS(=O)(=O)c1ccc(Oc2ccccc2)cc1)C(=O)N(C)[C@H](C(=O)N1CCC[C@H]1C(N)=O)C(C)C` ({Benzenesulfonyl(4-OPh)-GABA}-NDAL[NMeV]P-NH2), for which the concentration for half-maximal inhibition (IC50) came out at 0.078 nM in assay [1] and 21 nM at Collagenase 3. Besides, the Ratio IC50 in the assay filed under Homo sapiens stood at 282.
The corresponding values for `CC(C)C[C@H](NC(=O)[C@H](C)NC(=O)[C@H](CC(=O)O)NC(=O)[C@H](CC(N)=O)NC(=O)CCCNS(=O)(=O)c1ccc(Oc2ccccc2)cc1)C(=O)N(C)[C@@H](CC(C)C)C(=O)N1CCC[C@H]1C(N)=O` ({Benzenesulfonyl(4-OPh)-GABA}-NDAL[NMeL]P-NH2) are 0.066 nM, 9.2 nM and 62.
On to `CC(C)C[C@H](NC(=O)[C@H](C)NC(=O)[C@H](CC(=O)O)NC(=O)[C@H](CC(N)=O)NC(=O)CCCNS(=O)(=O)c1ccc(Oc2ccccc2)cc1)C(=O)N(C)[C@H](C(=O)N1CCC[C@H]1CC(N)=O)C(C)C` ({Benzenesulfonyl(4-OPh)-GABA}-NDAL[NMeV][β3hP]-NH2), for which the IC50 amounted to 0.046 nM in assay [1] and 25 nM against Collagenase 3. The Ratio IC50 in the assay filed under Homo sapiens was 122.
For the molecule `CC[C@H](C)[C@@H](C(=O)N1CCC[C@H]1CC(N)=O)N(C)C(=O)[C@H](CC(C)C)NC(=O)[C@H](CN)NC(=O)[C@H](CC(=O)O)NC(=O)[C@H](CC(N)=O)NC(=O)CCCNS(=O)(=O)c1ccc(Oc2ccccc2)cc1` ({Benzenesulfonyl(4-OPh)-GABA}-ND[Dap]L[NMeI][β3hP]-NH2), the values for the IC50 (in assay [1]; against Collagenase 3) were 0.13 nM and 274 nM, respectively. The Ratio IC50 in the assay filed under Homo sapiens worked out at 977.
For `CSCC[C@H](NC(=O)[C@H](CC(C)C)NC(=O)[C@H](C)NC(=O)[C@H](CC(=O)O)NC(=O)[C@H](CC(N)=O)NC(=O)CCNS(=O)(=O)c1ccc(-c2ccccc2)cc1)C(=O)N1CCC[C@H]1C(N)=O` ({Benzenesulfonyl(4-Ph)-βAla}-NDALMP-NH2), the half-inhibitory concentration (IC50) in assay [1] is 6.3 nM; at Collagenase 3, 1730 nM. Besides, the Ratio IC50 in the assay filed under Homo sapiens turned out to be 18.
The corresponding values for `CSCC[C@H](NC(=O)[C@H](CC(C)C)NC(=O)[C@H](C)NC(=O)[C@H](CC(=O)O)NC(=O)[C@H](CC(N)=O)NC(=O)CCCNS(=O)(=O)c1ccc(Oc2ccccc2)cc1)C(=O)N1CCC[C@H]1C(N)=O` ({Benzenesulfonyl(4-OPh)-GABA}-NDALMP-NH2) are 0.083 nM, 55 nM and 145.
The corresponding values for `CC(C)C[C@H](NC(=O)[C@H](CCN)NC(=O)[C@H](CC(=O)O)NC(=O)[C@H](CC(N)=O)NC(=O)CCCCCNC(=O)c1ccc(Oc2ccc(C(N)=O)cc2)cc1)C(=O)N(C)[C@@H](CCC(=O)O)C(=O)N1CCC[C@H]1CC(N)=O` ({Benzoyl(4-OPh(4-CONH2))-Ahx}-ND[Dab]L[NMeE][β3hP]-NH2) are 0.13 nM, 192 nM and 15600.
The matching figures for `CC[C@H](C)[C@@H](C(=O)N1CCC[C@H]1CC(N)=O)N(C)C(=O)[C@H](CC(C)C)NC(=O)[C@H](CCCN)NC(=O)[C@H](CC(=O)O)NC(=O)[C@H](CC(N)=O)NC(=O)CCCNS(=O)(=O)c1ccc(Oc2ccccc2)cc1` ({Benzenesulfonyl(4-OPh)-GABA}-ND[Orn]L[NMeI][β3hP]-NH2): 0.61 nM, 134 nM and 189.
